Tests used:
[1] = test system: Rattus norvegicus; experiment: Compound was evaluated for in vivo inhibition of pentagastrin induced gastric acid secretion in rats by 50% after iv administration; assay type: functional; conditions: Stomach
[2] = molecular target: T1, Cholecystokinin receptor type A (Rattus norvegicus, UniProt P30551); experiment: Binding affinity towards Cholecystokinin type A receptor from rat pancreas using [I125]-L-364,718 as the radioligand
T1 sequence (P30551 whole entry): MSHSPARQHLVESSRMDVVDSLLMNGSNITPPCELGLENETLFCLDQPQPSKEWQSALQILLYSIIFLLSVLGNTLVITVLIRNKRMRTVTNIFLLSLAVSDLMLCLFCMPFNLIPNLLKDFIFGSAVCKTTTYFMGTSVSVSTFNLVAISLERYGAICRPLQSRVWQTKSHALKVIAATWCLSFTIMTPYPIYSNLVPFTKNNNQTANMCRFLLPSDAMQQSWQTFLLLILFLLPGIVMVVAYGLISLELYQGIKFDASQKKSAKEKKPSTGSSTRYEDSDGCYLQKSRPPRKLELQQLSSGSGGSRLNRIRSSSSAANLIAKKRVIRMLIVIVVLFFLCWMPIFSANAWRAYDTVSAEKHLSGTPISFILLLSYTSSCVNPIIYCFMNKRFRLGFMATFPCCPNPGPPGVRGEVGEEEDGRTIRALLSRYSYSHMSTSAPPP

[3] = molecular target: T2, Gastrin/cholecystokinin type B receptor (Rattus norvegicus, UniProt P30553); experiment: Binding affinity towards gastrin/Cholecystokinin type B receptor from rat brain using [125I]CCK-8 as the radioligand
T2 sequence (P30553 whole entry): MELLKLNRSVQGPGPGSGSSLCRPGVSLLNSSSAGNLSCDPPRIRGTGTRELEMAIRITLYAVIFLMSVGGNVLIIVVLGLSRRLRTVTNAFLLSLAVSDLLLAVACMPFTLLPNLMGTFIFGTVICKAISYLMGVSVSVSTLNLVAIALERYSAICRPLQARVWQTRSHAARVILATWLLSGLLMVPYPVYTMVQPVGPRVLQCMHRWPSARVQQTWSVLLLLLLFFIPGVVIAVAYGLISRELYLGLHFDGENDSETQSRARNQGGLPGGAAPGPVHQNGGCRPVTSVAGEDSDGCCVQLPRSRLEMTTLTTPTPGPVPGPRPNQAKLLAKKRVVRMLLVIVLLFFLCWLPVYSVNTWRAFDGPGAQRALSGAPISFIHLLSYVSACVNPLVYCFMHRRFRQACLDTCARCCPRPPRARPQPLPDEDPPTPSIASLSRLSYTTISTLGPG

[4] = test system: Rattus norvegicus; experiment: Compound was evaluated for in vivo inhibition of pentagastrin induced gastric acid secretion in rats after iv administration at dose of 0.1 umol/kg; assay type: functional; conditions: Stomach

Compound	ED50 [1]	IC50 [2]	IC50 [3]	inhibition in vivo at 0.1 µmol/kg [4]
Cc1cccc(NC(=O)NC2N=C(c3ccccn3)c3ccccc3N(CC(=O)c3ccccc3C)C2=O)c1 (centres undefined)	0.0167 µmol/kg	980 nM	0.13 nM	
Cc1cccc(NC(=O)NC2N=C(c3nccn3C)c3ccccc3N(CC(=O)C(C)(C)C)C2=O)c1 (centres undefined)		844 nM	4.52 nM	49%
Cc1cccc(NC(=O)NC2N=C(c3cnccn3)c3ccccc3N(CC(=O)C(C)(C)C)C2=O)c1 (centres undefined)		1360 nM	0.88 nM	55%
Cc1cccc(NC(=O)NC2N=C(c3ccccn3)c3ccccc3N(CC(=O)C(C)(C)C)C2=O)c1 (centres undefined)	0.016 µmol/kg	470 nM	0.44 nM	
Cc1cccc(NC(=O)NC2N=C(c3ccccc3)c3ccccc3N(CC(=O)c3ccccc3C)C2=O)c1 (centres undefined)		146 nM	0.11 nM	
Cc1cccc(NCNC2N=C(c3ccn[nH]3)c3ccccc3N(CC(=O)C(C)(C)C)C2=O)c1 (centres undefined)		105 nM	> 100 nM	18%
Cc1cccc(NC(=O)NC2N=C(c3cccnc3)c3ccccc3N(CC(=O)C3CCCC3)C2=O)c1 (centres undefined)		80 nM	1.6 nM	34%
Cc1cccc(NC(=O)NC2N=C(c3ccncc3)c3ccccc3N(CC(=O)C3CCCC3)C2=O)c1 (centres undefined)		> 10000 nM	48 nM	15%
Cc1cccc(NC(=O)NC2N=C(c3ccccn3)c3ccccc3N(CC(=O)C3CCCC3)C2=O)c1 (centres undefined)	0.0189 µmol/kg	2600 nM	0.12 nM	
Cc1cccc(NC(=O)NC2N=C(c3ncc[nH]3)c3ccccc3N(CC(=O)C(C)(C)C)C2=O)c1 (centres undefined)		2610 nM	8 nM	14%
Cc1cccc(NC(=O)NC2N=C(c3ccccc3)c3ccccc3N(CC(=O)C(C)(C)C)C2=O)c1 (centres undefined)		111 nM		
Cc1cccc(NC(=O)NC2N=C(c3cnc[nH]3)c3ccccc3N(CC(=O)C(C)(C)C)C2=O)c1 (centres undefined)		232 nM	26.1 nM	25%
Cc1cccc(NCNC2N=C(c3nccs3)c3ccccc3N(CC(=O)C(C)(C)C)C2=O)c1 (centres undefined)		433 nM	0.8 nM	58%
Cc1cccc(NC(=O)NC2N=C(c3ccncc3)c3ccccc3N(CC(=O)c3ccccc3C)C2=O)c1 (centres undefined)		670 nM	18 nM	37%

From ChEMBL document CHEMBL1128905, “Synthesis and biological activity of 5-heteroaryl benzodiazepines: analogues of YM022” (Bioorg Med Chem Lett, 1996)
